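Compound exposure: 48 hours, 5 concentrations, 96-well plates. At the TGI there is no net growth.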
Experiments:
Test in all cases: DTP human tumour cell line panel, 48 h
HOP-92 NSCLC = tested on: HOP-92 NSCLC
HS 578T breast = tested on: HS 578T breast
UO-31 renal = tested on: UO-31 renal
K-562 leukemia = tested on: K-562 leukemia
SW-620 colon = tested on: SW-620 colon
NCI-H460 lung = tested on: NCI-H460 lung
UACC-257 melanoma = tested on: UACC-257 melanoma
NCI/ADR-RES ovarian = tested on: NCI/ADR-RES ovarian
CCRF-CEM leukemia = tested on: CCRF-CEM leukemia
UACC-62 melanoma = tested on: UACC-62 melanoma

| SMILES | TGI (HOP-92 NSCLC) [µM] | TGI (HS 578T breast) [µM] | TGI (UO-31 renal) [µM] | TGI (K-562 leukemia) [µM] | TGI (SW-620 colon) [µM] | TGI (NCI-H460 lung) [µM] | TGI (UACC-257 melanoma) [µM] | TGI (NCI/ADR-RES ovarian) [µM] | TGI (CCRF-CEM leukemia) [µM] | TGI (UACC-62 melanoma) [µM] |
| --- | --- | --- | --- | --- | --- | --- | --- | --- | --- | --- |
| O=CN(O)CC(=O)O.[Ni] | > 100 | > 100 | > 100 | > 100 | > 100 | > 100 | > 100 | > 100 | > 100 | > 100 |
| NC(CCC(=O)NC(CSC(=O)N(O)c1ccc(Cl)cc1)C(=O)NCC(=O)O)C(=O)O (stereo not given) | > 0.5 | > 0.5 | > 0.5 | > 0.5 | > 0.5 | > 0.5 | > 0.5 | > 0.5 | > 0.5 | > 0.5 |
| Cc1cc(O)c2c(c1)C(=O)C=C(Br)C2=O | 27 | 35.6 | 28.9 | 3.38 | 12.2 | 45.9 | 26.5 | 43.1 | 4.1 | 32.4 |
| O=C(Nc1ccc(Cl)cc1Cl)c1cc2nc3ccccc3c(=O)n2c2ccccc12 | > 10 | > 10 | > 10 | > 10 | > 10 | > 10 | > 10 | > 10 | > 10 | > 10 |
| O=C1CC(NC2CC(=O)c3c(Br)sc(Br)c32)c2c(Br)sc(Br)c21 (stereo not given) | 21.5 | 33.2 | 4.46 | > 21.5 | 4.95 | 38.2 | 4.93 | > 86.8 | 3.17 | 24.2 |
| O=C(Nc1ccccc1)c1cc2c(cc1Cl)SC(NNCCO)=NS2(=O)=O | > 100 | > 100 | > 100 | > 100 | > 100 | > 100 | > 100 | > 100 | > 100 | > 100 |
| O=[N+]([O-])c1ccc(OP(=O)(O)OCC2OC(CP(=O)(O)O)C(O)C2O)cc1 (stereo not given) | > 100 | > 100 | > 100 | > 100 | > 100 | > 100 | > 100 | > 100 | > 100 | > 100 |
| CSc1ncc2c(C#N)c3ccccn3c(=O)c2n1 | > 100 | > 100 | > 100 | > 100 | > 100 | > 100 | > 100 | > 100 | > 100 | > 100 |
| c1csc(-c2cscc2-c2cccs2)c1 | > 100 | > 100 | > 100 | > 100 | > 100 | > 100 | > 100 | > 100 | > 100 | > 100 |
| CN(C)C=NCc1ccc2c(c1)OCO2 | > 100 | > 100 | > 100 | > 100 | > 100 | > 100 | > 100 | > 100 | > 100 | > 100 |
| Nc1nc(Cl)cc(NCC2(CO)CC(c3ccccc3)C2)n1 (stereo not given) | > 100 | 83.8 | > 100 | > 100 | > 100 | > 100 | > 100 | 92.2 | > 100 | > 100 |
| OCCSCc1cc(Cl)cc(Cl)c1O | > 100 | > 100 | > 100 | > 100 | > 100 | > 100 | > 100 | > 100 | > 100 | > 100 |
| CCSC1=C(C#N)C2(CCCCC2)C2=C(CC(C)(C)CC2=O)N1 | 43.1 | > 100 | 39.8 | > 100 | > 100 | 21.2 | > 100 | > 100 | > 100 | > 100 |
| C=CCC1(O)C(=O)OC2C(O)COC21O (stereo not given) | > 100 | > 100 | > 100 | > 100 | > 100 | > 100 | > 100 | > 100 | > 100 | > 100 |
| Cc1cc(O)c2cc3c(O)c(O)ccc3cc2c1 | > 22.8 | 6.22 | 2.22 | 3.33 | > 28.9 | 3.63 | 13.5 | 5.89 | 22.6 | 22.6 |
| CC(=O)[C@H]1[C@@H](OCc2ccccc2)O[N+]([O-])=C(C)[C@@H]1c1ccccc1 | 62.4 | 72.4 | 40.2 | 38 | 31.7 | > 100 | > 100 | > 100 | 44.1 | > 100 |

— PubChem BioAssay (NCI)
